Reference: patent US20260115209A1, “COMBINATION THERAPY INCLUDING COX-2 INHIBITOR FOR THE TREATMENT OF CANCER” (THE REGENTS OF THE UNIVERSITY OF CALIFORNIA, priority 2022, published 2026)

Columns and labels:
Type in all cases: cell-based
VACO432 = assay: Cell viability assay (CellTiter-Glo), GI50, 3-day treatment; settings: 72 h; VACO432 (BRAF^V600E CRC); 50% growth inhibition after 3 days of treatment compared to control; read-out: GI50 concentrations
Method: (§1) To assess the growth/survival response of cell lines to single or combinatorial drug treatments, we used CellTiter-Glo cell viability assay (Promega; cat #G7571). Cell culture and luminescence readouts were performed in 96- and 384-well plates after 3-day treatments. GI50 corresponds to the concentration of a given drug that causes 50% inhibition of cell growth (GI50). The effects of drug combinations on cell growth were assessed by calculating fold change in VEM-sensitivity and combination index (C.I.) that were experimentally measured from ≥9 individual datapoints around drugs' GI50, i.e. at GI50, 0.5×GI50, 2×GI50 concentrations of each drug per drug combination experiment. To address the particular effects of some drug treatments on some cell lines, the choice of experimental datapoints centered around drugs' GI50 effects was adjusted by including individual datapoints ranging from ≥GI25 to ≤GI75, leading to calculate fold change in VEM-sensitivity and combination index (C.I.) from 12 to 20 individual datapoints, as previously explained (7).

OUMS23 = assay: as above; settings: OUMS-23, 72 h; OUMS23 (CRC MAP3K8^amp); 50% growth inhibition after 3 days of treatment compared to control; read-out: GI50 concentrations
Method: as §1

Sk-Mel-28 = assay: as above; settings: Homo sapiens, 72 h; Sk-Mel-28 (BRAF^V600E melanoma); 50% growth inhibition after 3 days of treatment compared to control; read-out: GI50 concentrations
Method: as §1

LIM2405 = assay: as above; settings: 72 h; LIM2405 (BRAF^V600E CRC); 50% growth inhibition after 3 days of treatment compared to control; read-out: GI50 concentrations
Method: as §1

LS411N = assay: as above; settings: Homo sapiens, LS-411N, 72 h; LS411N (BRAF^V600E CRC); 50% growth inhibition after 3 days of treatment compared to control; read-out: GI50 concentrations
Method: as §1

KM20 = assay: as above; settings: 72 h; KM20 (BRAF^V600E CRC); 50% growth inhibition after 3 days of treatment compared to control; read-out: GI50 concentrations
Method: as §1

SNUC5 = assay: as above; settings: 72 h; SNUC5 (BRAF^V600E CRC); 50% growth inhibition after 3 days of treatment compared to control; read-out: GI50 concentrations
Method: as §1

RKO1 = assay: as above; settings: 72 h; RKO1 (BRAF^V600E CRC); 50% growth inhibition after 3 days of treatment compared to control; read-out: GI50 concentrations
Method: as §1

HT29 = assay: as above; settings: Homo sapiens, HT-29, 72 h; HT29 (BRAF^V600E CRC); 50% growth inhibition after 3 days of treatment compared to control; read-out: GI50 concentrations
Method: as §1

WiDr = assay: as above; settings: Homo sapiens, 72 h; WiDr (BRAF^V600E CRC); 50% growth inhibition after 3 days of treatment compared to control; read-out: GI50 concentrations
Method: as §1

A375 = assay: as above; settings: Homo sapiens, A-375, 72 h; A375 (BRAF^V600E melanoma); 50% growth inhibition after 3 days of treatment compared to control; read-out: GI50 concentrations
Method: as §1

SFK = assay: Western blot of SFK activation (Y419 phosphorylation); settings: BRAF^V600E CRC cell lines
Method: For samples to be analyzed with the HT-KAM platform, cells at ˜85% confluency were washed three times with cold PBS and lysed with freshly prepared 1× cell lysis buffer (1 ml per 2.5×10^6 cells) (lOX Cell Lysis Buffer, Cell Signaling; cat. #9803) complemented with 1× of Halt Protease & Phosphatase (100×, ThermoScientific; cat. #1861281). Cell lysates were collected and spun down at 14,000 rpm for 15 min at 4° C. and supernatants stored at −80° C. For samples to be analyzed by western blot, cell lysates were prepared with RIPA lysis buffer (150 mM NaCl, 0.1% SDS, 1% Nonidet P40, 1% sodium deoxycholate and 10 mM sodium phosphate, pH 7.2) supplemented with protease and phosphatase inhibitors. After clearing by centrifugation at 12,000 rpm for 10 minutes at 4° C., the lysates were analyzed as described in the respective experiments.
For western-blot, samples were denatured by boiling in 1× Laemmli buffer and run on an 8% SDS-PAGE gel. After transfer onto a PVDF membrane and blocking with 3% BSA, the membranes were incubated with primary antibodies overnight at 4° C., washed 3 times with TBST (Tris-buffered saline containing 0.05% Tween-20), incubated with secondary antibodies for 1 hour at room temperature and developed using chemoluminescence (cat #32209 from Pierce).
Antibodies anti-HSP90 was procured from Santa Cruz Biotechnologies (H-114, cat #7947). […]

## CCCS(=O)(=O)Nc1ccc(F)c(C(=O)c2c[nH]c3ncc(-c4ccc(Cl)cc4)cc23)c1F [vemurafenib, N-[3-[5-(4-chlorophenyl)-1H-pyrrolo[2,3-b]pyridine-3-carbonyl]-2,4-difluorophenyl]propane-1-sulfonamide]
VACO432
  GI50: 1150 nM
OUMS23
  GI50: 1400 nM
Sk-Mel-28
  GI50: 150 nM
LIM2405
  GI50: 150 nM
LS411N
  GI50: 1450 nM
KM20
  GI50: 2000 nM
SNUC5
  GI50: 2250 nM
RKO1
  GI50: 1700 nM
HT29
  GI50: 1750 nM
WiDr
  GI50: 1500 nM
A375
  GI50: 10 nM
SFK
  SFK activation (phosphorylation of Y419): increased SFK activation
